A word on the IC50: it is the point on the concentration scale where inhibition reaches its midpoint. A higher IC50 goes with weaker potency in that assay.

The text below walks through data of patent US10457707B2, “Substituted urea depsipeptide analogs as activators of the CLPP endopeptidase” (priority 2015, dated 2019).

The assay deals with T1, Sa-ClpP (Staphylococcus aureus, UniProt Q2G036).
T1 construct: made in house; host or cells: E. coli BL21(DE3)
T1 sequence (Q2G036 1-195): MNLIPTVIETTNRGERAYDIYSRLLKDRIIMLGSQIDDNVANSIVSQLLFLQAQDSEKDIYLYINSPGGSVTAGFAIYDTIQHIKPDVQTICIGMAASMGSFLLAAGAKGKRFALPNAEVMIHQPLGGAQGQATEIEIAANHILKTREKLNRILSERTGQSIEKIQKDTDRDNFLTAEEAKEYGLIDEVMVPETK
In words: ADEP displacement fluorescence polarization assay (FP probe ADEP 2591). It counts as binding. On the procedure:
A fluorescence polarization (FP) assay was used to determine the activity of the disclosed compounds in displacing an ADEP analogue from ClpP. Briefly, the assay was performed in black 384 well, flat bottom, low volume plates (Greiner Bio-One, Monroe, N.C., catalog #784076). 20 μL of a pre-equilibrated (1 hr, room temperature) master mix (15 μM Sa-ClpP, 2% DMSO (v/v) and 50 nM FP probe in Tris*HCl, pH 8.0)) was pipetted into each well using a Well-Mate (Thermo Scientific, Waltham, Mass.). Sa-ClpP was prepared as described above for the ClpP activation assay. The FP probe was ADEP 2591 (structure shown above). The ADEP 2591 comprises a TAMRA fluorophore linked to a core based on modified ADEP 2378 via a short alkyl linker. Using pin transfer, approximately 0.4 μL (2% v/v DMSO) of each compound or control was added per well. After addition of compounds and controls, plates were allowed to incubate for an additional 120 minutes at room temperature. All assays were performed in triplicate. Polarization was monitored using an EnVision Multilabel reader (Perkin-Elmer, Waltham, Mass.) by exciting the FP probe at 530±25 nm, and monitoring fluorescence intensity of both parallel and perpendicular polarized light at 579±25 nm. Readout was in millipolarization units (mP).
Data collected was normalized to values obtained from positive (200 μM ADEP 2378) or negative (DMSO) controls. Curves were fit with non-linear regression using the equation “log [inhibitor] vs. Response-variable slope (four parameters)-symmetrical” in the program Prism 6 (GraphPad Software, La Jolla, Calif. USA, www.graphpad.com). The structures for ADEP 2378 and ADEP 2591 are shown above. ADEP 2378 is (E)-N—((S)-1-(((2R,6S,8aS,14aS,20S,23aS)-2,6-dimethyl-5,8,14,19,23-pentaoxooctadecahydro-1H,5H,14H,19H-pyrido[2,1-i]dipyrrolo[2,1-c:2′,1′-1][1]oxa[4,7,10,13]tetraazacyclohexadecin-20-yl)amino)-1-oxo-3-phenylpropan-2-yl)pent-2-enamide. ADEP 2591 is 5-(3-(3-((6S,9S,11aS,17S,20aS)-6,10-dimethyl-5,8,11,16,20-pentaoxo-17-((S)-2-((E)-pent-2-enamido)-3-phenylpropanamido)hexadecahydro-1H,5H,16H-dipyrrolo[2,1-c:2′,1′-1][1]oxa[4,7,10,13]tetraazacyclohexadecin-9-yl)propyl)thioureido)-2-(6-(dimethylamino)-3-(dimethyliminio)-3H-xanthen-9-yl)benzoate.
(In general: In fluorescence polarisation assays a small probe gives low polarisation when free and higher when bound to something large.)

SMILES strings stand for the structures. *1 amine or outer side, *2 acyl side, *3 side chain or, on linkers, in order; H or OH if unused. Where a SMILES comes first, the peptide text is derived from it. Bridges are numbered along the chain shown (N, C = ends). [ ]: non-standard residue; d: D form. The star is where a group is joined. ξ: configuration not given here. Phe(3,5-F2) = N[C@@H](Cc1cc(F)cc(F)c1)C(=O)O; NH(4-OCF3-phenyl) = FC(F)(F)Oc1ccc(N*)cc1; Pro(4S-Me) = C[C@@H]1CN[C@H](C(=O)O)C1; Pro(4R-Me) = C[C@H]1CN[C@H](C(=O)O)C1; ξPro(4R-OH) = O=C(O)C1C[C@@H](O)CN1; ξPro(4R-Me) = C[C@H]1CNC(C(=O)O)C1; NH(4-Et-phenyl) = CCc1ccc(N*)cc1; NMeT = CN[C@H](C(=O)O)[C@@H](C)O; NH(4-Me-phenyl) = Cc1ccc(N*)cc1; aThr = C[C@H](O)[C@H](N)C(=O)O; NMeA = CN[C@@H](C)C(=O)O; CO = O=C([*:1])[*:2]; ξP = O=C(O)C1CCCN1

Regarding `Cc1ccc(NC(=O)N[C@@H](Cc2cc(F)cc(F)c2)C(=O)N[C@@H]2C(=O)N3C[C@H](O)CC3C(=O)N(C)[C@@H](C)C(=O)N[C@@H](C)C(=O)N3C[C@H](C)CC3C(=O)O[C@H]2C)cc1` (stereo partly drawn) [Compound 31, (S)-3-(3,5-difluorophenyl)-N-((2S,6S,9S,11aS,13R,17S,18S,20aS)-13-hydroxy-2,6,9,10,18-pentamethyl-5,8,11,16,20-pentaoxohexadecahydro-1H,5H,16H-dipyrrolo[2,1-c:2′,1′-l][1]oxa[4,7,10,13]tetraazacyclohexadecin-17-yl)-2-(3-(p-tolyl)ureido)propanamide] ({NH(4-Me-phenyl)-CO}-[Phe(3,5-F2)][aThr][ξPro(4R-OH)][NMeA]A[ξPro(4R-Me)]; ester 2-C), the IC50 was 5.8 ± 0.3 µM.

The compound `Cc1ccc(NC(=O)N[C@@H](Cc2cc(F)cc(F)c2)C(=O)N[C@@H]2C(=O)N3CCC[C@H]3C(=O)N(C)[C@@H]([C@@H](C)O)C(=O)N[C@@H](C)C(=O)N3C[C@@H](C)C[C@H]3C(=O)O[C@H]2C)cc1` [Compound 35, (S)-3-(3,5-difluorophenyl)-N-((2S,6S,9S,11aS,17S,18S,20aS)-9-((R)-1-hydroxyethyl)-2,6,10,18-tetramethyl-5,8,11,16,20-pentaoxohexadecahydro-1H,5H,16H-dipyrrolo[2,1-c:2′,1′-l][1]oxa[4,7,10,13]tetraazacyclohexadecin-17-yl)-2-(3-(p-tolyl)ureido)propanamide] ({NH(4-Me-phenyl)-CO}-[Phe(3,5-F2)][aThr]P[NMeT]A[Pro(4S-Me)]; ester 2-C) yielded an IC50 of 6.6 ± 0.4 µM.

On to `C[C@H]1C[C@H]2C(=O)O[C@@H](C)[C@H](NC(=O)[C@H](Cc3cc(F)cc(F)c3)NC(=O)Nc3ccc(OC(F)(F)F)cc3)C(=O)N3CCC[C@H]3C(=O)N(C)[C@@H]([C@@H](C)O)C(=O)N[C@@H](C)C(=O)N2C1` [Compound 36, (S)-3-(3,5-difluorophenyl)-N-((2S,6S,9S,11aS,17S,18S,20aS)-9-((R)-1-hydroxyethyl)-2,6,10,18-tetramethyl-5,8,11,16,20-pentaoxohexadecahydro-1H,5H,16H-dipyrrolo[2,1-c:2′,1′-l][1]oxa[4,7,10,13]tetraazacyclohexadecin-17-yl)-2-(3-(4-(trifluoromethoxy)phenyl)ureido)propanamide] ({NH(4-OCF3-phenyl)-CO}-[Phe(3,5-F2)][aThr]P[NMeT]A[Pro(4S-Me)]; ester 2-C), for which the IC50 is 6.4 ± 0.5 µM.

For the compound `CCc1ccc(NC(=O)N[C@@H](Cc2cc(F)cc(F)c2)C(=O)N[C@@H]2C(=O)N3CCC[C@H]3C(=O)N(C)[C@@H]([C@@H](C)O)C(=O)N[C@@H](C)C(=O)N3C[C@@H](C)C[C@H]3C(=O)O[C@H]2C)cc1` [Compound 37, (S)-3-(3,5-difluorophenyl)-2-(3-(4-ethylphenyl)ureido)-N-((2S,6S,9S,11aS,17S,18S,20aS)-9-((R)-1-hydroxyethyl)-2,6,10,18-tetramethyl-5,8,11,16,20-pentaoxohexadecahydro-1H,5H,16H-dipyrrolo[2,1-c:2′,1′-l][1]oxa[4,7,10,13]tetraazacyclohexadecin-17-yl)propanamide] ({NH(4-Et-phenyl)-CO}-[Phe(3,5-F2)][aThr]P[NMeT]A[Pro(4S-Me)]; ester 2-C), the IC50 was 7 ± 0.4 µM.

For the compound `Cc1ccc(NC(=O)N[C@@H](Cc2cc(F)cc(F)c2)C(=O)N[C@@H]2C(=O)N3CCC[C@H]3C(=O)N(C)[C@@H]([C@@H](C)O)C(=O)N[C@@H](C)C(=O)N3C[C@H](C)C[C@H]3C(=O)O[C@H]2C)cc1` [Compound 38, (S)-3-(3,5-difluorophenyl)-N-((2R,6S,9S,11aS,17S,18S,20aS)-9-((R)-1-hydroxyethyl)-2,6,10,18-tetramethyl-5,8,11,16,20-pentaoxohexadecahydro-1H,5H,16H-dipyrrolo[2,1-c:2′,1′-l][1]oxa[4,7,10,13]tetraazacyclohexadecin-17-yl)-2-(3-(p-tolyl)ureido)propanamide] ({NH(4-Me-phenyl)-CO}-[Phe(3,5-F2)][aThr]P[NMeT]A[Pro(4R-Me)]; ester 2-C), the IC50 was found to be 6.52 ± 0.3 µM.

Consider `C[C@@H]1C[C@H]2C(=O)O[C@@H](C)[C@H](NC(=O)[C@H](Cc3cc(F)cc(F)c3)NC(=O)Nc3ccc(OC(F)(F)F)cc3)C(=O)N3CCC[C@H]3C(=O)N(C)[C@@H]([C@@H](C)O)C(=O)N[C@@H](C)C(=O)N2C1` [Compound 41, (S)-3-(3,5-difluorophenyl)-N-((2R,6S,9S,11aS,17S,18S,20aS)-9-((R)-1-hydroxyethyl)-2,6,10,18-tetramethyl-5,8,11,16,20-pentaoxohexadecahydro-1H,5H,16H-dipyrrolo[2,1-c:2′,1′-l][1]oxa[4,7,10,13]tetraazacyclohexadecin-17-yl)-2-(3-(4-(trifluoromethoxy)phenyl)ureido)propanamide] ({NH(4-OCF3-phenyl)-CO}-[Phe(3,5-F2)][aThr]P[NMeT]A[Pro(4R-Me)]; ester 2-C), for which the IC50 was determined as 7.53 ± 0.2 µM.

The compound `CCc1ccc(NC(=O)N[C@@H](Cc2cc(F)cc(F)c2)C(=O)N[C@@H]2C(=O)N3CCC[C@H]3C(=O)N(C)[C@@H]([C@@H](C)O)C(=O)N[C@@H](C)C(=O)N3C[C@H](C)C[C@H]3C(=O)O[C@H]2C)cc1` [Compound 42, (S)-3-(3,5-difluorophenyl)-2-(3-(4-ethylphenyl)ureido)-N-((2R,6S,9S,11aS,17S,18S,20aS)-9-((R)-1-hydroxyethyl)-2,6,10,18-tetramethyl-5,8,11,16,20-pentaoxohexadecahydro-1H,5H,16H-dipyrrolo[2,1-c:2′,1′-l][1]oxa[4,7,10,13]tetraazacyclohexadecin-17-yl)propanamide] ({NH(4-Et-phenyl)-CO}-[Phe(3,5-F2)][aThr]P[NMeT]A[Pro(4R-Me)]; ester 2-C) registered an IC50 of 7.12 ± 0.2 µM.

Take `C[C@@H]1C[C@H]2C(=O)OC[C@H](NC(=O)[C@H](Cc3cc(F)cc(F)c3)NC(=O)Nc3ccc4c(c3)OCO4)C(=O)N3CCC[C@H]3C(=O)N3CCCC[C@H]3C(=O)N[C@@H](C)C(=O)N2C1` [Compound 195, (S)-2-(3-(benzo[d][1,3]dioxol-5-yl)ureido)-3-(3,5-difluorophenyl)-N-((2R,6S,8aS,14aS,20S,23aS)-2,6-dimethyl-5,8,14,19,23-pentaoxooctadecahydro-1H,5H,14H,19H-pyrido[2,1-i]dipyrrolo[2,1-c:2′,1′-l][1]oxa[4,7,10,13]tetraazacyclohexadecin-20-yl)propanamide]: the IC50 turned out to be 5.8 ± 0.2 µM.

`C[C@@H]1C[C@H]2C(=O)OC[C@H](NC(=O)[C@H](Cc3ccccc3)NC(=O)Nc3ccc(OC(F)(F)F)cc3)C(=O)N3CCC[C@H]3C(=O)N3CCCC[C@H]3C(=O)N[C@@H](C)C(=O)N2C1` [Compound 205] came in with an IC50 of 21.6 ± 1.4 µM.

`C[C@@H]1NC(=O)[C@H](C)N(C)C(=O)[C@@H]2CCCN2C(=O)[C@@H](NC(=O)[C@H](Cc2ccccc2)NC(=O)Nc2ccc(OC(F)(F)F)cc2)COC(=O)C2CCCN2C1=O` (stereo partly drawn) [Compound 213, (2S)-3-phenyl-2-(3-(4-(trifluoromethoxy)phenyl)ureido)-N-((6S,9S,11aS,17S)-6,9,10-trimethyl-5,8,11,16,20-pentaoxohexadecahydro-1H,5H,16H-dipyrrolo[2,1-c:2′,1′-l][1]oxa[4,7,10,13]tetraazacyclohexadecin-17-yl)propanamide] ({NH(4-OCF3-phenyl)-CO}-FSP[NMeA]A[ξP]; ester 2-C) gave an IC50 of 5 ± 0.4 µM.
